System: ICD patients with a LVEF of 40% or less
Assay: clinical study ALPHEE: prevention of cardiovascular hospitalization
Type: in vivo
Details: clinical trial using amiodarone as calibrator; oral, with a meal
From the text: The primary objective of the study is to assess the efficacy of celivarone for the prevention of ICD interventions or death. The study also aims at assessing the usefulness of celivarone for reducing occurrences of cardiovascular hospitalization in treated patients.
This is a dose-finding multicenter, multinational, randomized, double blind, placebo controlled, parallel arm study including a positive control calibrator arm. Patients are randomized to one of three doses of celivarone or placebo or to the amiodarone calibrator arm.
The efficacy of celivarone is based on data regarding appropriate ICD intervention obtained by regular ICD interrogation, performed as described below, as well as on data regarding death of the randomized patients, in particular sudden death, and on data regarding cardiovascular hospitalization occurrences.
The study includes a one week screening period, followed by a treatment period scheduled for a minimum duration of 6 months for the last patient recruited and going from the first day of treatment to the end of treatment visit to be done 10-15 days prior to the scheduled study end date. […]
Cardiovascular hospitalization is an hospitalization with a cardiovascular cause, as assessed by the investigator. […]

CCCCc1oc2ccc(C(=O)OC(C)C)cc2c1C(=O)c1ccc(CCCN(CCCC)CCCC)cc1.O=C(O)/C=C/C(=O)O [celivarone, 2-butyl-3-[4-[3-(dibutylamino)propyl]benzoyl]-1-benzofuran-5-carboxylic acid isopropyl ester fumarate]
prevention of cardiovascular hospitalization: effective

From patent publication US20110207811A1, “USE OF CELIVARONE FOR REDUCING OCCURRENCES OF CARDIOVASCULAR HOSPITALIZATION” (SANOFI-AVENTIS, priority 2010, published 2011)
